Assay results as given in patent publication US7511123B2, “Immuno-interactive fragments of the alpha-C subunit of inhibin” (Prince Henry's Institute of Medical Research, priority 1999, dated 2009).

Key:
[1] = test system: PO-12; assay: RIA of Set 2 peptides with PO-12; assay type: binding, mouse; design: key: +++; ΦΦΦ strong effect; +, Φ weak effect; conditions: Set 2 biotinylated peptides 0.8 and 0.08 micromoles/L
Method: (§1) The binding of the 41 biotinylated peptides as set forth in Table 7 (peptide set 2) to the mouse monoclonal antibodies (PO# series) was assessed as follows: b) Assay 2 (radioimrnunoassay, RIA) using iodinated human inhibin A as tracer. Mabs (at an appropriate dilution, see above) were incubated with iodinated human recombinant inhibin in the presence of biotinylated peptides (0.8 and 0.08 micromoles/L final concentration) overnight at room temperature.

[2] = test system: PO-14; assay: Solid phase binding of Set 2 peptides to PO-14; design: species or system mouse; key: +++; ΦΦΦ strong effect; +, Φ weak effect; conditions: Set 2 biotinylated peptides 24 micromoles/L
Method: (§2) The binding of the 41 biotinylated peptides as set forth in Table 7 (peptide set 2) to the mouse monoclonal antibodies (PO# series) was assessed as follows:
(§3) a) Assay 1 (solid phase assay). The assay was undertaken as outlined in assay 1 of Example 2. Biotinylated peptides (24 micromoles/L) were initially bound to streptavidin-coated plates. Mab (at an appropriate dilution to give a detectable response, 1:1000, 1:10000 dilution of the culture medium) was then added and incubated for 1.5 hr. The amount of bound Mab was determined using horseradish peroxidase-bound anti-mouse IgG serum and enzyme activity detected at 450-630 nm using an ELISA plate reader.

[3] = test system: As #41; assay: RIA (Assay 2): competition with iodinated inhibin for As #41; assay type: binding, sheep; conditions: biotinylated peptides; 50% fall in binding of iodinated inhibin
In short: (§4)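 Graded doses of peptide or hr-inhibin standard competed with iodinated human recombinant 30 kDa inhibin tracer for the sheep antiserum at a set dilution, overnight at 4°C. Bound tracer was precipitated with goat anti-sheep IgG and gamma-counted. ED50 is the dose producing 50% loss of tracer binding.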

[4] = test system: As #1989; assay: RIA (Assay 2): competition with iodinated inhibin for As #1989; assay type: binding, rabbit; conditions: biotinylated peptides; 50% fall in binding of iodinated inhibin
In short: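 Radioimmunoassay measuring how well peptides compete with iodinated 30 kDa human recombinant inhibin tracer for binding to antiserum #1989. Graded doses of peptide, iodinated inhibin and diluted antiserum were incubated overnight at 4° C. Antibody-bound tracer was precipitated with goat anti-sheep IgG serum and counted in a gamma counter. The ED50, the peptide concentration halving tracer binding, indicated affinity.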

[5] = test system: As #128; assay: RIA (Assay 2): competition with iodinated inhibin for As #128; assay type: binding, sheep; conditions: biotinylated peptides; 50% fall in binding of iodinated inhibin
In short: as §4

[6] = test system: PO-14; assay: RIA of Set 2 peptides with PO-14; assay type: binding, mouse; conditions: Set 2 biotinylated peptides 0.8 and 0.08 micromoles/L
Method: as §1

[7] = test system: PO-12; assay: RIA of Set 2 peptides with PO-12; assay type: binding, mouse; design: key: ΦΦΦ strong effect; +, Φ weak effect; a) limited binding; conditions: Set 2 biotinylated peptides 0.8 and 0.08 micromoles/L
Method: as §1

[8] = test system: PO-12; assay: Solid phase binding of Set 2 peptides to PO-12; design: species or system mouse; key: +++; ΦΦΦ strong effect; +, Φ weak effect; conditions: Set 2 biotinylated peptides 24 micromoles/L
Method: as §2, §3

[9] = test system: As #128; assay: Solid phase assay (Assay 1): biotinylated peptides binding to As #128; design: species or system sheep; key: +++++ major contribution; + minor contribution; conditions: relative contribution
Method: This assay is a broad screen of the binding of the 31 biotinylated peptides to As #41 and #128 as recommended by Chiron Mimotopes.
The biotinylated peptides were initially bound to streptavidin-coated 96-well plates (2 hours at room temperature), antiserum #41 or #128 was then added (2 hours room temperature) to bind to the peptides. Detection of antiserum binding was assessed by a further incubation with an anti-ovine IgG serum labeled with the enzyme, horseradish peroxidase. The enzyme activity was assessed by conversion of a colorless substrate to a colored product that is detected in a spectrophotometer. The enzyme activity measured was proportional to the extent of the binding of the peptides.

[10] = test system: As #128; assay: Competitive 2-site assay (Assay 3), approach (a); assay type: binding, sheep; design: key: +++++ major contribution; + minor contribution; conditions: relative contribution
Source text: This assay was developed to establish the relative importance of the individual peptides and peptide pools (identified as epitopes in Assays 1 and 2) in the sandwich antibody format used in the IFMA with As #128 as capture antibody and As #41 as detection antibody. Two approaches (a and b) were considered, Approach (a) explores the cross-reaction of peptides with inhibin for the immobilized As #128 while Approach (b) assesses their cross-reaction with inhibin for As #41.
Approach (a). The biotinylated peptide pools and/or individual peptides at various concentrations, in combination with a fixed concentration of hr-inhibin, were incubated for 2 hours with As #128-coated plates. The plates were then washed to remove any unbound material. Iodinated As #41 was then added to bind to the bound hr-inhibin, the plates washed and the bound radioactivity was measured in a gamma counter. The counts measured were proportional to the amount of hr-inhibin bound to both antisera. The possibility that a peptide contained two epitopes capable of linking As #128 and #41 was assessed in the absence of added hr-inhibin.

[11] = test system: R1; assay: RIA of Set 2 peptides with R1; assay type: binding, mouse; design: key: +++; ΦΦΦ strong effect; +, Φ weak effect; conditions: Set 2 biotinylated peptides 0.8 and 0.08 micromoles/L
Method: as §1

[12] = test system: PO-14; assay: RIA of Set 2 peptides with PO-14; assay type: binding, mouse; design: key: +++; ΦΦΦ strong effect; +, Φ weak effect; conditions: Set 2 biotinylated peptides 0.8 and 0.08 micromoles/L
Method: as §1

[13] = test system: R1; assay: RIA of Set 2 peptides with R1; assay type: binding, mouse; design: key: ΦΦΦ strong effect; +, Φ weak effect; a) limited binding; conditions: Set 2 biotinylated peptides 0.8 and 0.08 micromoles/L
Method: as §1

[14] = test system: PO-22; assay: Solid phase binding of Set 2 peptides to PO-22; design: species or system mouse; key: +++; ΦΦΦ strong effect; +, Φ weak effect; conditions: Set 2 biotinylated peptides 24 micromoles/L
Method: as §2, §3

[15] = test system: R1; assay: Solid phase binding of Set 2 peptides to R1; design: species or system mouse; key: +++; ΦΦΦ strong effect; +, Φ weak effect; conditions: Set 2 biotinylated peptides 24 micromoles/L
Method: as §2, §3

[16] = test system: PO-6; assay: Solid phase binding of Set 2 peptides to PO-6; design: species or system mouse; key: +++; ΦΦΦ strong effect; +, Φ weak effect; conditions: Set 2 biotinylated peptides 24 micromoles/L
Method: as §2, §3

[17] = test system: PO-22; assay: RIA of Set 2 peptides with PO-22; assay type: binding, mouse; design: key: ΦΦΦ strong effect; +, Φ weak effect; a) limited binding; conditions: Set 2 biotinylated peptides 0.8 and 0.08 micromoles/L
Method: as §1

Substance	PO-12 RIA [1]	PO-14 SPB [2]	As#41 ED50 [3] [nM]	As#1989 ED50 [4] [nM]	As#128 ED50 [5] [nM]	PO-14 RIA [6]	PO-12 RIA [7]	PO-12 SPB [8]	#128 Antibody screen Assay 1 [9]	#128 2-site competitive assay Assay 3 [10]	R1 RIA [11]	PO-14 RIA [12]	R1 RIA [13]	PO-22 SPB [14]	R1 SPB [15]	PO-6 SPB [16]	PO-22 RIA [17]
SGSG AALPGTMRPLHVRT [Peptide 27]	Φ	+++	5000	>2500	2000	ΦΦ											
SGSG TPAQPYSLLPGAQP [Peptide 23]		+++	6200	>2500	500	ΦΦ	ΦΦΦ	+++									
SGSG ALRLLQRPPEEPAA [Peptide 6]			26	>2500	1800				+	+	Φ						
SGSG GAPPTPAQPYSLLP [Peptide 22]	Φ	+++	5000	>2500	156			+++				Φ					
SGSG STPLMSWPWSPSAL [Peptide 3]				>2500	38000								ΦΦΦ	+++	+++	+++	ΦΦΦ
